In US20250248975 one finds ring closure, isolated yield data, which are given here for 14 compounds.

Read-outs that look alike come from different tables or passages of the source.

With `CCOC(=O)C(C)Cc1cccc(C2(C)CCC(C)(C)COc3cn(nn3)Cc3c(c(F)cc4c3ccn4S(=O)(=O)c3ccccc3)Oc3ccc(F)c(c3)-c3nc2nn3C)c1` (centres unmarked), the ring closure, isolated yield (from CCOC(=O)C(C)Cc1cccc(C(C)(CCC(C)(C)CO)c2nc(-c3cc(Oc4c(F)cc5c(ccn5S(=O)(=O)c5ccccc5)c4Cn4cc(O)nn4)ccc3F)n(C)n2)c1, ether bond, 19-membered ring, CMBP, toluene, 11.3 mM, 150.0 °C, 1.0 h) was 50%.

`CCOC(=O)CCc1cccc(C2CC/C=C/CC(C)(C)c3cnn(c3)Cc3c(c(F)cc4c3ccn4S(=O)(=O)c3ccc(C)cc3)Oc3ccc(F)c(c3)-c3ccn2n3)c1` (centres unmarked): the ring closure, isolated yield (from C=CCCC(c1cccc(CCC(=O)OCC)c1)n1ccc(-c2cc(Oc3c(F)cc4c(ccn4S(=O)(=O)c4ccc(C)cc4)c3Cn3cc(C(C)(C)CC=C)cn3)ccc2F)n1, rcm bond, 20-membered ring, Hoveyda-Grubbs II, toluene, 1.26 mM, 60.0 °C, 12.0 h) was determined as 66%.

Consider “Methyl (2R)-3-[3-[21-(benzenesulfonyl)-9,9,24,30-tetrafluoro-3,6-dimethyl-)1-oxa-26-thia-3,4,15,21,32,33-hexazahexacyclo[25.3.1.12,5.112,15.017,25.018,22]tritriaconta-1(31),2(33),4,12(32),13,17,19,22,24,27,29-undecaen-6-yl]phenyl]-2-methylpropanoate”, for which the ring closure, isolated yield (other bond, 19-membered ring, CMBP, toluene, 150.0 °C, 3 steps) came to 11.6%.

Under “triazole bond, 19-membered ring, 3 steps”, `Cc1ccc(S(=O)(=O)n2ccc3c4c(c(F)cc32)Sc2cccc(c2)-c2ccn(n2)C(c2cccc(Br)c2)CCCCC(C)(C)c2cn(nn2)C4)cc1` (centres unmarked) came in with a ring closure, isolated yield of 22.5%.

For the setting “from C#CCCCC(C)(c1cccc(/C=C/C(=O)OC)c1)c1cnc(-c2cc(Oc3c(F)cc4c(ccn4S(=O)(=O)c4ccc(C)cc4)c3Cc3csc(I)n3)ccc2F)[nH]1, cc_pd bond, 19-membered ring, PdCl2(PPh3)2/CuI/TEA, DMF, 10.6 mM, 60.0 °C”, `COC(=O)/C=C/c1cccc(C2(C)CCCC#Cc3nc(cs3)Cc3c(c(F)cc4c3ccn4S(=O)(=O)c3ccc(C)cc3)Oc3ccc(F)c(c3)-c3ncc2[nH]3)c1` (centres unmarked) displayed a ring closure, isolated yield of 15%.

The compound `CC1(c2cccc(I)c2)CCCC(O)CNC(=O)/C=C/c2c(c(F)cc3[nH]ccc23)Oc2ccc(F)c(c2)-c2ncc1[nH]2` (centres unmarked) yielded a ring closure, isolated yield (from CC(CCCC(O)CN)(c1cccc(I)c1)c1cnc(-c2cc(Oc3c(F)cc4[nH]ccc4c3/C=C/C(=O)O)ccc2F)[nH]1, amide bond, 19-membered ring, EDC.HCl/HOBt, THF/DMF 10:1, 102.0 mM, 18.0 h) of 40%.

`Cn1nc2nc1-c1cc(ccn1)Oc1c(F)cc3[nH]ccc3c1Cn1cc(nn1)C(C)(C)CCCC[C@]2(C)c1cccc(I)c1` had a ring closure, isolated yield (triazole bond, 19-membered ring, 4 steps) of 22.1%.

Turning to `C#CC(C)(C)CCCCC(C)(c1cccc(CCC(=O)OC)c1)c1csc(-c2cc(Oc3c(F)cc4[nH]ccc4c3CN=[N+]=[N-])ccc2F)n1` (centres unmarked), where the note is “the molecule shown is the open-chain precursor, triazole bond, 19-membered ring”, the ring closure, isolated yield turned out to be 77%.

In the case of `Cn1cc2nc1-c1cccc(c1)Oc1c(F)cc3[nH]ccc3c1Cn1cc(nn1)C(C)(C)OCCCC2(C)c1cccc(Br)c1` (centres unmarked), the ring closure, isolated yield (from C#CC(C)(C)OCCCC(C)(c1cccc(Br)c1)c1cn(C)c(-c2cccc(Oc3c(F)cc4[nH]ccc4c3CN=[N+]=[N-])c2)n1, triazole bond, 19-membered ring, Cu(MeCN)4BF4/TBTA, DCM, 3.2 mM, 45.0 °C) is 60%.

On to `Cn1nc2nc1-c1cc(ccc1F)Sc1c(F)cc3c(ccn3S(=O)(=O)c3ccccc3)c1Cn1cc(cn1)C(C)(C)C/C=C\CC2(C)c1cccc(Br)c1` (centres unmarked), for which the ring closure, isolated yield (rcm bond, 19-membered ring) turned out to be 79%.

With `CCOC(=O)C(C)Cc1cccc(C2(C)CCC(C)(C)COc3ccn(n3)Cc3c(c(F)cc4c3ccn4S(=O)(=O)c3ccccc3)Oc3ccc(F)c(c3)-c3nc2nn3C)c1` (single isomer, unassigned; isomer 2), the ring closure, isolated yield (from CCOC(=O)C(C)Cc1cccc(C(C)(CCC(C)(C)COc2cc[nH]n2)c2nc(-c3cc(Oc4c(F)cc5c(ccn5S(=O)(=O)c5ccccc5)c4CO)ccc3F)n(C)n2)c1, other bond, 18-membered ring, CMBP, toluene, 13.6 mM, 150.0 °C, 1.0 h) stood at 21%.

For `Cc1ccc(S(=O)(=O)n2ccc3c4c(c(F)cc32)Sc2ccc(F)c(c2)-c2ccn(n2)C(c2cccc(Br)c2)CCOCC(C)(C)c2cn(nn2)C4)cc1` (centres unmarked), the ring closure, isolated yield (from C#CC(C)(C)COCCC(c1cccc(Br)c1)n1ccc(-c2cc(Sc3c(F)cc4c(ccn4S(=O)(=O)c4ccc(C)cc4)c3CN=[N+]=[N-])ccc2F)n1, triazole bond, 19-membered ring, Cu(MeCN)4BF4 (0.1 eq)/TBTA (0.1 eq), DCM, 43.4 mM, 45.0 °C) worked out at 61%.

`Cn1nc2nc1-c1cc(ccc1F)Oc1c(F)cc3c(ccn3S(=O)(=O)c3ccccc3)c1Cn1cc(cn1)C(C)(C)C/C=C\CC2(C)c1cccc(Br)c1` (centres unmarked) registered a ring closure, isolated yield (rcm bond, 19-membered ring, Grubbs II, toluene, 100.0 °C) of 62%.

For the compound “Mixture of 21-(benzenesulfonyl)-6-(3-bromophenyl)-24,30-difluoro-10,10-dimethyl-9,26-dioxa-5,12,13,21,33-pentazahexacyclo[25.3.1.12,5.112,15.017,25.018,22]tritriaconta-1(31),2(33),3,13,15(32),17,19,22,24,27,29-undecaene and 22-(benzenesulfonyl)-7-(3-bromophenyl)-25,31-difluoro-11,11-dimethyl-10,27-dioxa-5,6,13,14,22-pentazahexacyclo[26.3.1.113,16.02,6.018,26.019,23]tritriaconta-1(32),2,4,14,16(33),18,20,23,25,28,30-undecaene”, the ring closure, isolated yield (other bond, 19-membered ring, CMBP, 1,4-dioxane, 24.7 mM, 145.0 °C) is 55%.
